Data taken from patent US10829473B2, “Modulators of the cystic fibrosis transmembrane conductance regulator protein and methods of use” (AbbVie Overseas S.Á.R.L., priority 2017, dated 2020).
Read-outs that look alike come from different tables or passages of the source.

Biological target: T1, F508delCFTR (Homo sapiens, UniProt P13569, DEL508-508)
T1 construct: expressed in transfected cells; host or cells: CFBE41o- human lung derived epithelial cells (CFBE41o-F508delCFTR-HRP), doxycycline-inducible
Experiment: Cell Surface Expression-Horse Radish Peroxidase (CSE-HRP) Assay;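 for EC50 (with co-corrector): co-corrector chromenyl benzoic acid corrector at 2 or 3 µM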;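 for Maximum % activity (without co-corrector): % of on-plate positive control chromenyl benzoic acid corrector at 2 or 3 µM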
Format: cell-based
Details: for Maximum % activity (with co-corrector) / Emax: maximum at any tested concentration; for Emax: read-out: Maximum % activity (without co-corrector)
Procedure, shortened: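 Corrector compounds were given as 8-point 3-fold series from 20 or 30 μM, with or without a 2 μM co-corrector, for 18-24 h at 33 °C. Surface HRP was read by luminol luminescence as % of positive control; variable-Hill-slope sigmoidal fitting gave EC50 from triplicate plates.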

[1] = test compound with co-corrector
[2] = test compound with co-corrector, read-out: EC50 (with co-corrector)
[3] = test compound without co-corrector
[4] = test compound without co-corrector, read-out: EC50 (without co-corrector)
[5] = test compound alone, without co-corrector, read-out: EC50 (without co-corrector)
[6] = with co-corrector, read-out: EC50 (with co-corrector)

T1 sequence (P13569 with tags, fused parts or gaps DEL508-508): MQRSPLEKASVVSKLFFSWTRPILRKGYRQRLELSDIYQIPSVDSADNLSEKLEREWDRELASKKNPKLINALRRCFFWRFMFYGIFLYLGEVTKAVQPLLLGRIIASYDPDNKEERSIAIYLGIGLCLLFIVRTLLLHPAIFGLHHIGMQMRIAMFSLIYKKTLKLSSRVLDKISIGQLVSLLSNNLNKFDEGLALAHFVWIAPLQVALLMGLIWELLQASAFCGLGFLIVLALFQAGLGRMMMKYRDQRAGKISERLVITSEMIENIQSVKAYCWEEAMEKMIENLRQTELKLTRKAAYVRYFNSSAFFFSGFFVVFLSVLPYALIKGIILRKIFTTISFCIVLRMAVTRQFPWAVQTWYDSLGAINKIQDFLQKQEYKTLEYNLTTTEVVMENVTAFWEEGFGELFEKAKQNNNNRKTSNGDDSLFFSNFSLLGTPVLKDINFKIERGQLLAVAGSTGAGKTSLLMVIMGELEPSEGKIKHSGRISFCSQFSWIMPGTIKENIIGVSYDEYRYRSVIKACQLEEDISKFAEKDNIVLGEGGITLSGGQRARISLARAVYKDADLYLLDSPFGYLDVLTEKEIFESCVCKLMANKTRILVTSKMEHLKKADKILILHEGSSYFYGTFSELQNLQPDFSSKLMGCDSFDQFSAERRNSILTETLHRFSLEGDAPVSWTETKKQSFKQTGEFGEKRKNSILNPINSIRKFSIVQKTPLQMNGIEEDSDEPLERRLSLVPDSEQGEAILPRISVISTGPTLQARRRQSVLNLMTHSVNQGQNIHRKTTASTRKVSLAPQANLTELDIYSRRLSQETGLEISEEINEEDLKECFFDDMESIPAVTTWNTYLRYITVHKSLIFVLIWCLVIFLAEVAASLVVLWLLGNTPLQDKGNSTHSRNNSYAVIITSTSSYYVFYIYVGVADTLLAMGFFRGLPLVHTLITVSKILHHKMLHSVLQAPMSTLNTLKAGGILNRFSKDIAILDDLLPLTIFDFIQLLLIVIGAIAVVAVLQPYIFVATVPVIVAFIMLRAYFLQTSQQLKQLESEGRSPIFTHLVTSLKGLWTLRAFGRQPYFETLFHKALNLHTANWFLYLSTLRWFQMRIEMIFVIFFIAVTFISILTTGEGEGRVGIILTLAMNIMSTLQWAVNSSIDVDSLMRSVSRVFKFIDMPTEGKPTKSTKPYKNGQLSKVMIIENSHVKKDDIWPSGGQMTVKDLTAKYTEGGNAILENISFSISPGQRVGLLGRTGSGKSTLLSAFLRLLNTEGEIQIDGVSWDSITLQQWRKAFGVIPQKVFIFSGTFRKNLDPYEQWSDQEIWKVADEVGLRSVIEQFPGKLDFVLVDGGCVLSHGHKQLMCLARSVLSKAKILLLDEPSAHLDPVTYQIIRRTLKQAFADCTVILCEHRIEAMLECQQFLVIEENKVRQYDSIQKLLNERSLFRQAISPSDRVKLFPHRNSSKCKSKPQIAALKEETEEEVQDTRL

SMILES	Maximum % activity (with co-corrector) [1]	EC50 [2]	Emax [3]	EC50 [4]	EC50 [5]	Maximum % activity (with co-corrector) (with co-corrector)	EC50 [6]	Emax (without co-corrector)
COCCOc1ncc(C)cc1C1(C(=O)NS(=O)(=O)c2cccc3ncccc23)CC1 [GII-52, 1-[2-(2-methoxyethoxy)-5-methylpyridin-3-yl]-N-(quinoline-5-sulfonyl)cyclopropane-1-carboxamide]	++ (≥150 and <350)	3 to 10 µM	50 to 150%	3 to 10 µM	–	–	–	–
COc1ccc(C2CC2)c(C)c1C1(C(=O)NS(=O)(=O)c2cccc3nc(C)ccc23)CC1 [II-52]	–	–	–	–	< 3 µM	+++ (≥350)	< 3 µM	> 150%
Cc1ccc(OC2COC2)c(C2(C(=O)NS(=O)(=O)c3cccc4nc(N)ccc34)CC2)c1 [II-90]	–	–	–	–	3 to 10 µM	+++ (≥350)	3 to 10 µM	> 150%
COc1cc(C2(C(=O)NS(=O)(=O)c3cccc4c3CCCN4)CC2)c(Cl)cn1 [GII-7, 1-(5-chloro-2-methoxypyridin-4-yl)-N-(1,2,3,4-tetrahydroquinoline-5-sulfonyl)cyclopropane-1-carboxamide]	+++ (≥350)	3 to 10 µM	50 to 150%	3 to 10 µM	–	–	–	–
Cc1ccc(C2(C(=O)NS(=O)(=O)c3cccc4ncccc34)CC2)c(OC(C)C)n1 [Example GI-80, 1-{6-methyl-2-[(propan-2-yl)oxy]pyridin-3-yl}-N-(quinoline-5-sulfonyl)cyclopropane-1-carboxamide]	+++ (≥350)	< 3 µM	> 150%	< 3 µM	–	–	–	–
CN(C)c1ncc(C(F)(F)F)cc1C1(C(=O)NS(=O)(=O)c2cccc3ncccc23)CC1 [Example I-57, 1-[2-(dimethylamino)-5-(trifluoromethyl)pyridin-3-yl]-N-(quinoline-5-sulfonyl)cyclopropane-1-carboxamide]	–	–	–	–	< 3 µM	+++ (≥350)	< 3 µM	> 150%
Cc1ccc2c(S(=O)(=O)NC(=O)C3(c4cc(Cl)cnc4N4CCCC4)CC3)cccc2n1 [Example GI-36, 1-[5-chloro-2-(pyrrolidin-1-yl)pyridin-3-yl]-N-(2-methylquinoline-5-sulfonyl)cyclopropane-1-carboxamide]	+++ (≥350)	< 3 µM	> 150%	3 to 10 µM	–	–	–	–
O=C(NS(=O)(=O)c1cccc2ncccc12)C1(c2ccc(C(F)(F)F)nc2C2CC2)CC1 [Example GI-5, 1-[2-cyclopropyl-6-(trifluoromethyl)pyridin-3-yl]-N-(quinoline-5-sulfonyl)cyclopropane-1-carboxamide]	–	–	–	–	3 to 10 µM	+++ (≥350)	< 3 µM	> 150%
COc1ccc(C)c(C)c1C1(C(=O)NS(=O)(=O)c2cccc3[nH]ncc23)CC1 [II-77]	–	–	–	–	< 3 µM	+++ (≥350)	< 3 µM	> 150%
O=C(NS(=O)(=O)CC(F)(F)F)C1(c2ccc(Cl)cc2Cl)CC1 [Example III-106, 1-(2,4-dichlorophenyl)-N-(2,2,2-trifluoroethanesulfonyl)cyclopropane-1-carboxamide]	–	–	–	–	> 10 µM	+ (<150)	> 10 µM	< 50%
Cc1ccc(O[C@H]2CCOC2)c(C2(C(=O)NS(=O)(=O)c3cccc4nc(C)ccc34)CC2)c1 [Example I-124, 1-(5-methyl-2-{[(3S)-oxolan-3-yl]oxy}phenyl)-N-(2-methylquinoline-5-sulfonyl)cyclopropane-1-carboxamide]	–	–	–	–	< 3 µM	+++ (≥350)	< 3 µM	> 150%
COc1ccc(C(F)(F)F)cc1C1(C(=O)NS(=O)(=O)c2cccc3c2CCCN3)CC1 [II-28]	–	–	–	–	< 3 µM	+++ (≥350)	< 3 µM	> 150%
COc1ccc2c(S(=O)(=O)NC(=O)C3(c4cc(C5CC5)cnc4OCC(C)C)CC3)cccc2n1 [II-93]	–	–	–	–	< 3 µM	+++ (≥350)	< 3 µM	> 150%
CCc1cnc(N2CCC(OC(C)C)CC2)c(C2(C(=O)NS(=O)(=O)c3cccc4nc(C)ccc34)CC2)c1 [GII-55, 1-(5-ethyl-2-{4-[(propan-2-yl)oxy]piperidin-1-yl}pyridin-3-yl)-N-(2-methylquinoline-5-sulfonyl)cyclopropane-1-carboxamide]	+++ (≥350)	3 to 10 µM	> 150%	3 to 10 µM	–	–	–	–
COc1ccc(Br)cc1C1(C(=O)NS(=O)(=O)c2cccc3c2CCCN3)CCC1 [Example I-9, 1-(5-bromo-2-methoxyphenyl)-N-(1,2,3,4-tetrahydroquinoline-5-sulfonyl)cyclobutane-1-carboxamide]	–	–	–	–	< 3 µM	+++ (≥350)	< 3 µM	> 150%
CC(C)Oc1ccc(C2CCC2)nc1C1(C(=O)NS(=O)(=O)c2cccc3[nH]ccc23)CC1 [Example GI-38, 1-{6-cyclobutyl-3-[(propan-2-yl)oxy]pyridin-2-yl}-N-(1H-indole-4-sulfonyl)cyclopropane-1-carboxamide]	+++ (≥350)	< 3 µM	> 150%	< 3 µM	–	–	–	–
O=C(NS(=O)(=O)c1cccc2ncccc12)C1(c2cc(C3CC3)cnc2N2CCCC2)CC1 [Example GI-32, 1-[5-cyclopropyl-2-(pyrrolidin-1-yl)pyridin-3-yl]-N-(quinoline-5-sulfonyl)cyclopropane-1-carboxamide]	+++ (≥350)	< 3 µM	> 150%	3 to 10 µM	–	–	–	–
COc1ncc(C2CCC2)cc1C1(C(=O)NS(=O)(=O)c2cccc3cnn(C)c23)CC1 [II-13]	–	–	–	–	< 3 µM	+++ (≥350)	< 3 µM	> 150%
Cc1ccc2c(S(=O)(=O)NC(=O)C3(c4cc(C5CCC5)cnc4OCC4CC4)CC3)cccc2n1 [Example GI-110, 1-[5-cyclobutyl-2-(cyclopropylmethoxy)pyridin-3-yl]-N-(2-methylquinoline-5-sulfonyl)cyclopropane-1-carboxamide]	+++ (≥350)	< 3 µM	> 150%	< 3 µM	–	–	–	–
CO[C@H](C)COc1ccc(C)cc1C1(C(=O)NS(=O)(=O)c2cccc3ncccc23)CC1 [Example I-115, 1-{2-[(2R)-2-methoxypropoxy]-5-methylphenyl}-N-(quinoline-5-sulfonyl)cyclopropane-1-carboxamide]	–	–	–	–	< 3 µM	+++ (≥350)	< 3 µM	> 150%
COc1ccc(OC2CCOC2)cc1C1(C(=O)NS(=O)(=O)c2cccc3ncccc23)CC1 (stereo not shown) [II-23]	–	–	–	–	3 to 10 µM	+++ (≥350)	3 to 10 µM	50 to 150%
COc1cc(C2(C(=O)NS(=O)(=O)c3cccc4nc(C)ccc34)CC2)c(OCC(F)F)cn1 [GIII-14]	+++ (≥350)	3 to 10 µM	> 150%	3 to 10 µM	–	–	–	–
Cc1ccc2c(S(=O)(=O)NC(=O)C3(c4nc(OCC(C)C)ccc4OC(C)C)CC3)cccc2n1 [Example GI-90, 1-{6-(2-methylpropoxy)-3-[(propan-2-yl)oxy]pyridin-2-yl}-N-(2-methylquinoline-5-sulfonyl)cyclopropane-1-carboxamide]	+++ (≥350)	< 3 µM	> 150%	< 3 µM	–	–	–	–
COc1ccc(C2CCC2)cc1C1(C(=O)NS(=O)(=O)c2cccc3nc(N)ccc23)CC1 [Example I-67, N-(2-aminoquinoline-5-sulfonyl)-1-(5-cyclobutyl-2-methoxyphenyl)cyclopropane-1-carboxamide]	–	–	–	–	3 to 10 µM	+++ (≥350)	< 3 µM	> 150%
O=C(NS(=O)(=O)c1cccc2ncccc12)C1(c2ccc(C(F)(F)F)nc2N2CCCC2)CC1 [Example GI-15, 1-[2-(pyrrolidin-1-yl)-6-(trifluoromethyl)pyridin-3-yl]-N-(quinoline-5-sulfonyl)cyclopropane-1-carboxamide]	–	–	–	–	< 3 µM	+++ (≥350)	< 3 µM	> 150%
O=C(NS(=O)(=O)C(F)(F)F)C1(c2ccc(Cl)cc2Cl)CC1 [Example III-105, 1-(2,4-dichlorophenyl)-N-(trifluoromethanesulfonyl)cyclopropane-1-carboxamide]	–	–	–	–	> 10 µM	+ (<150)	> 10 µM	< 50%
O=C(N1CCc2ccc(S(=O)(=O)NC(=O)C3(c4cccc(Cl)c4)CC3)cc2C1)C(F)(F)F [Example III-72, 1-(3-chlorophenyl)-N-[2-(trifluoroacetyl)-1,2,3,4-tetrahydroisoquinoline-7-sulfonyl]cyclopropane-1-carboxamide]	–	–	–	–	> 10 µM	+ (<150)	> 10 µM	< 50%
CC(C)Oc1ccc(C2CCC2)nc1C1(C(=O)NS(=O)(=O)c2cccc3ncccc23)CC1 [Example GI-39, 1-{6-cyclobutyl-3-[(propan-2-yl)oxy]pyridin-2-yl}-N-(quinoline-5-sulfonyl)cyclopropane-1-carboxamide]	+++ (≥350)	< 3 µM	> 150%	< 3 µM	–	–	–	–
